# Laboratory results taken from patent US11180486B2, “Indolylkojyl methane analogues, process of preparation thereof and use as inhibitor of cancer cells invasion and metastasis” (Council of Scientific & Industrial Research, priority 2017, dated 2021).
# How the values were obtained:
# GRP78 = assay: Immunoblotting, expression of GRP78; format: cell-based, human; settings: for expression of intracellular GRP78 (time dependent study): 200 nM
# Procedure: (§1) Immunoblotting. MDA-MB-231 and MCF7 cells (0.5×10^6) were plated in six well plates for overnight in a humidified CO2 incubator and then exposed to varying concentrations of 5 (50, 100 and 200 nM) for 24 h along with vehicle (dose dependent study) and 200 nM of 5 for various time points like; 0, 6, 12, 24 and 48 h (time dependent study). Cells were then harvested, washed with chilled PBS and lysed with lysis buffer (HEPES 1 mM, KCl 60 mM, NP-40 0.3%, EDTA 1 mM, DTT 1 mM, sodium orthovanadate 1 mM, PMSF 0.1 mM and cocktail protease inhibitor). The cell extractions were centrifuged at 12,000 rpm for 10 min at 4° C. Protein concentration was measured by the standard Bradford method. An equal amount (20 μg) of protein from each sample was subjected to SDS-PAGE, and proteins were transferred to PVDF membranes (PALL), blocked with 5% (w/v) non-fat milk in PBS containing 0.1% Tween-20, probed with relevant antibodies (1:1000 dilution) for 3 h at room temperature or overnight at 4° C., and subsequently washed and probed with species-specific secondary antibodies coupled to horseradish peroxidase. Immunoreactive proteins were detected by Enhanced Chemiluminescence Plus (Thermo) (Rah et al., 2012, PloS one, 7(9), p.e44039.).
# (§2) Drug Potentiation Assay. Briefly, MDA-MB-231 cells were exposed to 200 nM of compound 5, 200 nM of doxorubicin alone and/or combination of both (1:1 ratio) for 48 h in cell viability (MTT) assay, for 5 days in a colony formation assay and subjected to western blotting for the expression of GRP78 and Par-4. The ability of 5 to enhance cell killing was expressed as potentiation index (PI), which was the ratio of the […]. Thus, PI>1 indicates potentiation and PI<1 indicates protection.
# MMP-2 = assay: Immunoblotting, expression of MMP-2; format: cell-based, human; settings: MDA-MB-231 cells; dose dependent
# Procedure: as §1
# MMP-9 = assay: Immunoblotting, expression of MMP-9; format: cell-based, human; settings: MDA-MB-231 cells; dose dependent
# Procedure: as §1
# E-cadherin = assay: Immunoblotting, expression of E-cadherin; format: cell-based, human; settings: MDA-MB-231 cells; dose dependent
# Procedure: as §1
# [1] = Pharmacokinetic study, intravenous; format: in vivo; settings: mouse, plasma, male Balb/c mice, i.v. 2.5 mg/kg b.w. single dose
# Procedure: Pharmacokinetic (PK) Study. Healthy male Balb/c mice (25-30 grams each) were taken to access the PK profile of 5. There were 11 time points for blood collection and 6 animals were there in each sampling time point for maintaining accuracy of the experiment. Animals were administered with 5, intravenously (2.5 mg/kg, b.w.) and control mice were administered with normal saline. A minimum of 100 μL of plasma was collected from each animal at different time points, viz: (0.083, 0.25, 0.5, 1, 2, 4, 6, 8, 12, 16 and 24 h) after dosing with 5 and then acetonitrile (ACN) 400 μL was added to it to precipitate the plasma proteins. The compound was extracted into the solvent, filtered and analyzed by a 6410B Triple quadrupole LC-MS/MS system (Agilent Technologies, USA). Quantification was performed through multiple reaction monitoring (MRM) separately for all the six samples collected individually at each time point by comparing with the standard calibration curve prepared using Agilent Mass Hunter software (version B.04.00). Various PK parameters like; half life (t1/2) (h), C initial C0 (ng/ml), area under the curve AUC(0-∞) (ng*h/ml), Vd (L/kg), Cl (L/h/kg) and Mean Residence Time (h) were calculated using non-compartmental pharmacokinetic data analysis. […] The pharmacokinetic parameters of compound 5 further provide evidence that the molecule has its very good absorption and biodistribution capability through i.v. route of administration.
# MDA-MB-231 cells [2] = assay: Drug potentiation, colony formation assay; format: cell-based, human
# Procedure: Colony Formation Assay. The experiment was performed according to the pre-standardized protocol (Amin et al., 2015, Mol. Carcinog). Accordingly, MDA-MB-231 cells were seeded in 6 well plates at a density of 1×10^3 cells/ well and incubated for 5 days by giving treatment with vehicle, compound 5, doxorubicin alone and/or combination of compound 5 plus doxorubicin (1:1 ratio). Cells were subsequently washed, fixed with methanol and stained with 0.2% crystal violet for 1 h. Cells were counted from atleast 3 random fields for the colony number under an inverted microscope and photographed at 20× magnifications.
# as §2
# MDA-MB-231 cells [3] = assay: Drug potentiation, cell viability (MTT) assay; format: cell-based, human; settings: 200 nM 5 plus 200 nM doxorubicin (1:1), 48 h
# Procedure: as §2
compound,measurement,setting,value
"CCCCCCCC(c1oc(CO)cc(=O)c1O)c1c[nH]c2ccccc12 (centres unmarked) [Compound 5, 2-{1-(1H-indol-3-yl)octyl}-3-hydroxy-6-(hydroxymethyl)-4H-pyran-4-one]",expression of intracellular GRP78 (time dependent study),GRP78; 24 h time point,consistent decrease
same,expression of intracellular GRP78 (time dependent study),GRP78; 48 h time period,almost vanished
same,expression of GRP78 (dose dependent study),"GRP78; 100 and 200 nM, 24 h, MDA-MB-231 and MCF7 vs vehicle",steady downregulation
same,decrease in the expression of GRP78,"GRP78; MDA-MB-231, 5 and doxorubicin in combination, 24 h, vs each alone, densitometry",5.1 fold
same,expression of MMP-2,MMP-2,downregulated
same,expression of MMP-9,MMP-9,downregulated
same,expression of E-cadherin,E-cadherin,induced significantly
same,AUC(0-t),[1]; read-out: Area under curve (AUC0-t),395 ng·h/mL
same,AUC(0-inf),[1]; read-out: Area under curve (AUC0-∞),406 ng·h/mL
same,C0,[1]; read-out: C initial (C0),1220 ng/mL
same,clearance,[1]; read-out: Clearance (Cl) (converted),205 mL/min/kg
same,half-life,[1]; read-out: Half life (t1/2) (converted),25.8 min
same,MRT,[1]; read-out: Mean residence time (MRT),27 min
same,Vd,[1]; read-out: Volume of distribution (Vd),7.61 L/kg
same,potentiation index (PI),"MDA-MB-231 cells [2]; 200 nM 5 plus 200 nM doxorubicin (1:1), 5 days, colony formation",5.2
same,potentiation of the effect of doxorubicin,"MDA-MB-231 cells [2]; summary statement, combination with doxorubicin in breast cancer cells",≤ 6 fold
same,potentiation index (PI),MDA-MB-231 cells [3],3.1
